“Also recorded” adds a separate entry of the source. Square brackets hold non-standard residues; d marks the D form. Peptide text beside a SMILES is read from it. * marks the point of attachment. ξ: configuration not given here. d(pY) = N[C@H](Cc1ccc(OP(=O)(O)O)cc1)C(=O)O; NBD = O=[N+]([O-])c1ccc(*)c2nonc12; ξ2Nal = NC(Cc1ccc2ccccc2c1)C(=O)O; βAla = NCCC(=O)O
Tests used:
PC-12 Adh = experiment: Ectophosphatase imaging of live cells, PC-12 Adh; assay type: cell-based, rat; conditions: 500 μM, 24 hour incubation
Procedure: (§1) FIGS. 18A-H show imaging and ectophosphatase quantification of live cells incubated with D3-a. FIGS. 18A-F show confocal microscopy images. […] The scale bar is […]. The images in FIG. 18B show the time course of fluorescence on HeLa cells incubated with D3-a for 30 minutes, 1 hour, 3 hours, and 6 hours, respectively. Nuclei were stained with Hoechst 33342. FIG. 18C is a 3D stacked z-scan image of fluorescence on HeLa cells treated with D-3a for 6 hours. […] Scale bar: 100 μm for FIG. 18B, upper panels and FIG. 18D; 10 μm for FIG. 18B, lower panels, FIG. 18E, and FIG. 18F. [D-3a]=500 μM for enhancing spatiotemporal resolution. […] FIG. 18H is a plot of time versus the fluorescence of pericellular nanofibrils on HeLa cells treated with D-3a. The initial cell number is 5,000 cells/well. All the confocal microscope images were taken after removing the medium with D-3a and then adding the live cell image solution (Invitrogen Life Technologies A14291DJ). [D3-a]=500 μM for FIGS. 18G-H.
(§2) To validate D-3a as an effective agent for the detection of phosphatase activity on a wide variety of cells, the cellular ectophosphatase activity of various cell lines, including PC-12, Capan-2, A375, Ect1/E6E7, and C3H10T1/2, was evaluated following 24 hour incubation of cells with 500 μM D-3a (FIG. 18A).

A375 = experiment: Ectophosphatase imaging of live cells, A375; assay type: cell-based, human; conditions: 500 μM, 24 hour incubation
Procedure: as §1, §2

[1] = tested on: Alkaline-phosphatase (“ALP”); conditions: D-3a; ALP (2 U/ml) in FIG. 38B
Text: […] Scale bar=100 nm.
Napthalene capped tripeptide precursor molecule D-2a and hydrogelator molecule D-2b, synthesized according to Yang et al. (Small 3:558-562 (2007), which is hereby incorporated by reference in its entirety), are comprised of the tripeptide D-Phe-D-Phe-D-Tyr (FIG. 1B). The D-Tyr of D-2a is phosphorylated (FIG. 1B).

HeLa cells [2] = experiment: Ectophosphatase imaging of live cells, HeLa time course; assay type: cell-based, human
Procedure: as §1
To investigate the spatiotemporal resolution of D-3a fluorescence, HeLa cells were incubated with 500 μM D-3a for varying amounts of time (30 minutes, 1 hour, 3 hours, and 6 hours, respectively) and imaged by confocal microscopy (FIG. 18B). […] Quantification of ectophosphatase activity on the surface of HeLa cells treated with 500 μM of D-3a is shown in FIGS. 18G-18H as a function of cell number or time, respectively.

HeLa cells [3] = experiment: Fluorescence imaging of HeLa/HS-5 co-culture, HeLa; assay type: cell-based, human; conditions: co-culture of HeLa and HS-5, 500 μM, 6 and 24 hours
Text: (§3) FIGS. 17A-C illustrates that phosphatases catalyze self-assembly to form fluorescent nanofibrils with high spatiotemporal resolution. FIG. 17A is an illustration of phosphatase-catalyzed spatiotemporal formation of fluorescent pericellular nanofibrils in co-culture mimicking tumor microenvironment. […] ALP or tyrosine phosphatase (“PTP”) converts D-3a to D-3b, which self-assembles in physiological condition to form fluorescent nanofibrils of D-3b. FIG. 17C contains a pair of fluorescent images showing that the fluorescent nanofibrils of D-3b selectively form on HeLa cells (the cancer cell, identified by arrows) and […] (the stromal cell, indicated by the arrow heads) in the co-culture of HeLa and HS-5. [D-3a]=500 μM, 6 hours (left panel) and 24 hours (right panel) incubation (scale bar=10 μm, the nuclei stained by Hoechst 33342, a DNA dye for live cells).
(§4) Co-culture of cancer cell (i.e., HeLa cells) and stromal cells (i.e., HS-5 cells) mimics the tumor microenvironment (Straussman et al., Nature 487:500-U118 (2012), which is hereby incorporated by reference in its entirety). […] This approach also offers a method for the visualization of live cells that express ectophosphatases.

Ect1/E6E7 = experiment: Ectophosphatase imaging of live cells, Ect1/E6E7; assay type: cell-based, human; conditions: 500 μM, 24 hour incubation
Procedure: as §1, §2

HS-5 cells = experiment: Fluorescence imaging of HeLa/HS-5 co-culture, HS-5; assay type: cell-based; conditions: co-culture of HeLa and HS-5, 500 μM, 6 and 24 hours
Text: as §3, §4

Capan-2 = experiment: Ectophosphatase imaging of live cells, Capan-2; assay type: cell-based, human; conditions: 500 μM, 24 hour incubation
Procedure: as §1, §2

C3H10T1/2 = experiment: Ectophosphatase imaging of live cells, C3H10T1/2; assay type: cell-based, murine; conditions: 500 μM, 24 hour incubation
Procedure: as §1, §2

HeLa cells [4] = experiment: LC-MS composition of pericellular hydrogel/nanofibrils and suspension medium of HeLa cells; assay type: in vitro ADME, human; conditions: HeLa cells incubated with precursor at 560 μM at 37° C. for 12 hours
HeLa cells [5] = experiment: Cell viability assay (MTT), HeLa; assay type: cell-based, human; conditions: 280 μM, direct addition
Procedure: Cells in exponential growth phase were seeded in a 96 well plate at a concentration of 2×10^4 cells/well. The cells were allowed to attach to the wells for 24 hours at 37° C., 5% CO2. The culture medium was removed and 100 μL culture medium containing compounds (immediately diluted from fresh prepared stock solution of 10 mM) at gradient concentrations (0 μM as the control) was placed into each well. After culturing at 37° C., 5% CO2 for 48 hours, each well was added by 10 μL of 5 mg/mL MTT (3-(4,5-dimethylthiazoL-2-yl)-2,5-diphenyltetrazolium bromide), and the plated cells were incubated in the dark for 4 hours. 100 μL 10% SDS with 0.01M HCl was added to each well to stop the reduction reaction and to dissolve the purple. After overnight incubation of the cells at 37° C., the OD at 595 nm of the solution was measured in a microplate reader. Data represent the mean±standard deviation of three independent experiments.

HeLa cells [6] = experiment: Cell adhesion assay; assay type: cell-based, human; conditions: 560 μM, trypsinized HeLa cells, at 4 hours
Procedure: Cells in exponential growth phase were detached using 0.25% trypsin-EDTA. After neutralizing trypsin by addition of complete culture medium, the cells were collected by centrifuge (1000 rpm, 3 min). The cell pellet was suspended by addition of culture medium to a concentration of 4×10^5 cells/mL. 1 mL of the cell suspension was mixed with 1 mL of 2×D-2a or D-2b containing culture media. The resulting solutions were added into 96 well plate at 100 μL/well. After the desired time of incubation at 37° C., 5% CO2, the solution was gently removed, and then 100 μL of culture medium and 10 μL of 5 mg/mL MTT were added to each well. Following 4 hour incubation in the dark, 100 μL of 10% SDS with 0.01M HCl was added to each well to stop the reduction reaction and to dissolve the purple. After incubation of the cells at 37° C. for overnight, the viability was measured. Data represent the mean±standard deviation of three independent experiments.

[7] = tested on: secretory phosphatases present in HeLa cell conditioned medium; experiment: Hydrogelation in HeLa cell conditioned medium; assay type: biochemical, human; conditions: 560 μM, 48 hours
Procedure: 2×10^5 of cells in exponential growth phase were seeded in a 35 mm Petri dish with 1 mL complete culture medium. Following overnight incubation, 1 mL of new medium was replaced and incubated for 24 h at 5% CO2, 37° C. The medium was next removed and centrifuged at 10,000 rpm for 5 minutes. The suspension was placed into a 1.5 mL Eppendorf® tube and stored at −20° C. Stored conditioned medium was thawed and warmed to 37° C. in water bath immediately before use.
HeLa cell conditioned medium (“CM”) dephosphorylates D-2a to form D-2b nanofibrils.

HeLa cells [8] = experiment: Pericellular hydrogelation on HeLa cells (optical images); assay type: cell-based, human; conditions: 560 μM, 2 hours at 37° C.
Procedure: An 11.2 mM (8.09 mg/mL) stock solution of D-2a was prepared in ddH2O. The pH was adjusted to 7.4 using 1N NaOH. 2×10^5 cells in exponential growth phase were seeded in 35 mm Petri dish with 1 mL complete culture medium. Following overnight incubation, the medium was replaced with 1 mL of medium containing D-2a (diluted from the stock solution immediately prior to use). Petri dishes were incubated at 37° C. for two hours. Next, dishes were removed from the incubator and titled on a bench to visualize the pericellular hydrogel. Prior to co-incubation with phosphatase inhibitors, cells were washed three times with medium containing Pierce phosphatase inhibitor cocktail (Thermo) (contains sodium floride, sodium orthovanadate, sodium pyrophosphate, and beta-glycerophosphate). Next, 1 mL of medium containing both the inhibitor cocktail and D-2a was applied to the cells.

O=C(CCNc1ccc([N+](=O)[O-])c2nonc12)NC(Cc1ccc2ccccc2c1)C(=O)N[C@H](Cc1ccccc1)C(=O)N[C@H](Cc1ccccc1)C(=O)N[C@H](Cc1ccc(OP(=O)(O)O)cc1)C(=O)O (stereo partly drawn) [D-3a, NBD-D-Nal-D-Phe-D-Phe-D-pTyr] ({NBD-βAla}-[ξ2Nal][dF][dF][d(pY)]-OH)
Cell surface exhibiting NBD fluorescence (PC-12 Adh): more than 50% | NBD fluorescence (A375): no fluorescence | Hydrogel formation after phosphatase-catalyzed dephosphorylation [1]: self-assembles to form the fluorescent nanonets/hydrogel | Cell surface fluorescence over time (HeLa cells [2]; 500 μM, 30 minutes, 1 hour, 3 hours, 6 hours): increased cell surface fluorescence with time | Fluorescence after re-incubation in fresh medium (HeLa cells [2]; 6 hour incubation with D-3a, then fresh medium for 24 hours): only nuclear dye fluorescence | NBD fluorescence on cancer cells in co-culture (HeLa cells [3]): selective formation of bright yellow (NBD) fluorescence on the surface of the cancer cells | NBD fluorescence (Ect1/E6E7): strong fluorescence in the cytosol | NBD fluorescence on stromal cells in co-culture (HS-5 cells): only yellow puncta are observed inside the HS-5 stromal cells | NBD fluorescence (Capan-2): weak | NBD fluorescence (C3H10T1/2): sporadic fluorescence on cell surface

O=C(Cc1ccc2ccccc2c1)N[C@@H](Cc1ccccc1)C(=O)N[C@@H](Cc1ccccc1)C(=O)N[C@@H](Cc1ccc(OP(=O)(O)O)cc1)C(=O)O [L-2a]
L-2b in suspension medium (HeLa cells [4]): 176.6 µM | L-3 in suspension medium (HeLa cells [4]): 270.4 µM

Nap-D-Phe-D-Phe-D-Tyr [D-2b]
Growth inhibition of HeLa cells (HeLa cells [5]): hardly inhibits the growth | Cells reattached to surface (HeLa cells [6]): > 80% | Hydrogel formation in HeLa cell conditioned medium [7]: fails to form a hydrogel | Pericellular hydrogel formation on HeLa cells (HeLa cells [8]): hardly any hydrogelation; also recorded: does not form pericellular hydrogels

From patent US11155576B2, “Synthetic peptides, enzymatic formation of pericellular hydrogels/nanofibrils, and methods of use” (BRANDEIS UNIVERSITY, priority 2014, dated 2021)
